From patent US10682323B2, “Therapeutic agent for glaucoma” (TOA EIYO LTD., priority 2016, dated 2020) come the findings set out here.

This test concerns the target T1, human sGC (Homo sapiens, UniProt Q02153).
T1 construct: expressed in transfected cells; host or cells: CHO-K1 cells (Chinese hamster ovary), stably co-expressing mouse CNGA2 as the calcium read-out channel
T1 sequence (Q02153 1-619): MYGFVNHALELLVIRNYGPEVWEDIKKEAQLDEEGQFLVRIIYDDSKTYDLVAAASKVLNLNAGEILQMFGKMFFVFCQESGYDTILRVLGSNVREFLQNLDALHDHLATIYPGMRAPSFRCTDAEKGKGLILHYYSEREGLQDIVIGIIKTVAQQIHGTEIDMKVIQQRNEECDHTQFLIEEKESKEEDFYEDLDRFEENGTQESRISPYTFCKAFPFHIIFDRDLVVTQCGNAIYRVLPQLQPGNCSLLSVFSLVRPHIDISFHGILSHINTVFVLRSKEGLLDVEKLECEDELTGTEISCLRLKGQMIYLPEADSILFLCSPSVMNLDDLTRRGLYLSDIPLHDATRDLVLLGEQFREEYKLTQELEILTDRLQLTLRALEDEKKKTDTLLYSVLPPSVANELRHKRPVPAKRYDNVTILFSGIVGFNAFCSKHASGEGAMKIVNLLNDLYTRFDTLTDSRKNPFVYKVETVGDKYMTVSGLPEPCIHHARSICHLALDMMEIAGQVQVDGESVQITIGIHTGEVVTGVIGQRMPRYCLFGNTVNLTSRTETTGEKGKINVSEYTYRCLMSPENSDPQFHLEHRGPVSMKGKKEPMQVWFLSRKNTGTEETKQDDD
T1 sequence (Q02108 1-690 partner): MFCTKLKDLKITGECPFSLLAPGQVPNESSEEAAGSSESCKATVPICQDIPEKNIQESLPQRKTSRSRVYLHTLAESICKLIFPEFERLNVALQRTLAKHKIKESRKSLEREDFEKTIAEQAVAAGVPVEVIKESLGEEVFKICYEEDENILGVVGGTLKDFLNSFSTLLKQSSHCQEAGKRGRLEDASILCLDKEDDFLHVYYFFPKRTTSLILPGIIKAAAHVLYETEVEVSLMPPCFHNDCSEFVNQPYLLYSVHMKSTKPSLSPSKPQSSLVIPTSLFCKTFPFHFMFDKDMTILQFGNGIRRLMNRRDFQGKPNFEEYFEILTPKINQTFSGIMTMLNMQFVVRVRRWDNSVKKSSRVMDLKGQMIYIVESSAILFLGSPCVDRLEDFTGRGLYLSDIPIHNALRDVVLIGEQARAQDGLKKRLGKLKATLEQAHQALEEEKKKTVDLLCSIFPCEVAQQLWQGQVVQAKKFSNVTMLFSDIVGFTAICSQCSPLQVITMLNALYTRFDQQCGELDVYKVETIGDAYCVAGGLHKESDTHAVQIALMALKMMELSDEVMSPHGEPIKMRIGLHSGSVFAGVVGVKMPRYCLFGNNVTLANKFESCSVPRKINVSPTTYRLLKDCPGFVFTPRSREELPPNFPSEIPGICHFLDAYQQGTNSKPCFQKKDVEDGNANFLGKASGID
The test can be described thus: Measurement of sGC activating effect in CHO-K1 cells stably expressing human sGC and mouse CNGA2. Format: cell-based. As to conditions: CHO-K1 cells expressing human sGC and mouse CNGA2, Fura2 calcium readout, 10 μmol/L ODQ in assay buffer. As to the method:
Chinese Hamster ovary cells (CHO-K1 cells) modified for stably expressing human sGC α subunit and β subunit, and a mouse cyclic nucleotide gated channel (CNGA2) were used in the test.
The CHO-K1 cells stably expressing human sGC and mouse CNGA2 were cultured at 37° C. in a F-12 medium supplemented with 10% (v/v) fetal bovine serum (FBS), penicillin (100 U/mL), streptomycin (100 μg/mL), G418 (250 μg/mL), and Zeocin (250 μg/mL). The cells were suspended in a culture medium, seeded in a 96 well plate, and cultured at 37° C. for 24 hours. The cells were washed with an assay buffer 1 (140 mmol/L of sodium chloride, 5 mmol/L of potassium chloride, 0.5 mmol/L of magnesium chloride, 0.01 mmol/L of calcium chloride, 10 mmol/L of glucose, 0.4 mmol/L of magnesium sulfate, 10 mmol/L of 4-(2-hydroxyethyl)piperazine-1-yl ethanesulfonic acid, 125 μmol/L of sulfinpyrazone, pH 7.4), and then an indicator solution in which Fura2-AM as a fluorescent Ca2+ indicator is dissolved in assay buffer 1 at a concentration of 5 μmol/L was added thereto, and cultured at 37° C. for 60 minutes. The culture medium was removed, the cells were washed with assay buffer 1, the test compound solution was added thereto, and cultured at room temperature for 10 minutes. The plate was mounted on a fluorescence microplate reader (FlexStation II, available from Molecular Devices) with setting of excitation wavelengths of 340 and 380 nm and a detection wavelength of 510 nm, an intracellular calcium concentration was measured as a fluorescent intensity ratio obtained from each excitation wavelength.
In this test, the solution of the test compound was prepared by dissolving each test compound in DMSO at a concentration of 10 mmol/L, and then diluting the solution with assay buffer 2 (140 mmol/L of sodium chloride, 5 mmol/L of potassium chloride, 0.5 mmol/L of magnesium chloride, 1 mmol/L of calcium chloride, 10 mmol/L of glucose, 0.4 mmol/L of magnesium sulfate, 10 mmol/L of 4-(2-hydroxyethyl)piperazine-1-yl ethanesulfonic acid, 125 μmol/L of sulfinpyrazone, 100 μmol/L of isobutylmethylxanthine, 10 μmol/L of 1H-[1,2,4]-oxadiazole [4,3-a]quinoxaline-1-on (hereinafter, referred to as ODQ), pH 7.4), in order to adjust the concentration of 10 μmol/L for testing. As a control solution, a DMSO diluted solution was used, instead of the test compound solution.
The activity of the test compound was calculated as an increase rate (%) of the sGC activity in the test compound solution relative to the sGC activity in the control solution, by dividing a fluorescent intensity ratio in adding the test compound by a fluorescent intensity ratio of the control solution, and subtracting the sGC activity in the control solution (100%) therefrom. An EC50 value was calculated from the activity of the test compound at concentrations of 0.0001, 0.001, 0.003, 0.01, 0.03, 0.1, 1, and 10 μmol/L, using a 4 parameter losgistic model from Assay Explorer (available from Dssault Systèmes BIOVIA).

For the compound `O=C(O)CCCCN(CCc1ccccc1OCc1ccc(CCc2ccccc2)cc1)Cc1ccc(C(=O)O)cc1` [Comparative Compound 1, reference compound], the EC50 turned out to be 8.84 nM. The figure for `O=C(O)CCCCN(CCc1ccccc1OCc1ccc(CCc2ccccc2)cc1)C1COc2cc(C(=O)O)ccc21` (stereo not shown) [Comparative Compound 2, reference compound] is 19.4 nM; for `N#Cc1cccc([C@H](CN(CCCCC(=O)O)Cc2ccc(C(=O)O)cc2)OCc2ccc(Oc3ccccc3)cc2)c1` [Comparative Compound 3, reference compound] it is 7.01 nM; for `CC(C)(C)c1cc(CO[C@@H](CN(CCCCC(=O)O)Cc2ccc(C(=O)O)cc2)c2ccccc2)cc(C(C)(C)C)c1` [Comparative Compound 4, reference compound] it is 0.46 nM.

With `O=C(O)CCCCN(Cc1ccc(C(=O)O)cc1)C[C@H](OCc1ccc(CCc2ccc(Cl)cc2)cc1)c1ccccc1` [Compound No. 6, (−)-4-([N-(4-carboxybutyl)-N-[(2R)-2-[4-[2-(4-chlorophenyl)ethyl]benzyloxy]-2-phenylethyl]amino]methyl)benzoic acid], the EC50 is 3.14 nM. Regarding `O=C(O)CCCCN(CCc1ccccc1OCc1cccc2c1CCCC2)[C@H]1CCCc2cc(C(=O)O)ccc21` [Compound No. 8, (+)-(5S)-5-[N-(4-carboxybutyl)-N-[2-[2-(5,6,7,8-tetrahydronaphthalene-1-ylmethoxy)phenyl]ethyl]amino]-5,6,7,8-tetrahydronaphthalene-2-carboxylic acid], the EC50 came out at 6.62 nM. In the case of `O=C(O)CCCCN(Cc1ccc(C(=O)O)cc1)C[C@H](OCc1ccc(CCc2ccccc2)cc1)c1ccccc1` [Compound No. 14, (−)-4-([N-(4-carboxybutyl)-N-[(2R)-2-[4-(2-phenylethyl)benzyloxy]-2-phenylethyl]amino]methyl)benzoic acid] it was 5.71 nM.
